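Grown in 96-well plates, cells were treated for 48 hours with each compound at five concentrations. Insufficient inhibition: endpoint recorded as highest concentration tested. GI50 is the concentration that inhibits growth by half. At the TGI there is no net growth.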
What was measured:
Experiment in all cases: inhibition of tumour cell growth, NCI panel, 48 h
[1] = test system: CCRF-CEM leukemia
[2] = test system: T-47D breast
[3] = test system: CAKI-1 renal
[4] = test system: MOLT-4 leukemia
[5] = test system: SNB-19 CNS
[6] = test system: HS 578T breast
[7] = test system: MCF7 breast
[8] = test system: U251 CNS
[9] = test system: HOP-92 NSCLC
[10] = test system: SF-268 CNS
[11] = test system: NCI-H460 lung
[12] = test system: SF-539 CNS
[13] = test system: EKVX NSCLC
[14] = test system: SK-MEL-28 melanoma
[15] = test system: UACC-62 melanoma
[16] = test system: HL-60(TB) leukemia
[17] = test system: COLO 205 colon
[18] = test system: SK-MEL-5 melanoma
[19] = test system: OVCAR-3 ovarian
[20] = test system: M14 melanoma
[21] = test system: TK-10 renal
[22] = test system: A498 renal
[23] = test system: SN12C renal
[24] = test system: SW-620 colon
[25] = test system: IGROV1 ovarian
[26] = test system: K-562 leukemia
[27] = test system: HT29 colon
[28] = test system: SK-OV-3 ovarian
[29] = test system: KM12 colon
[30] = test system: MDA-MB-231 breast
[31] = test system: MALME-3M melanoma
[32] = test system: SK-MEL-2 melanoma
[33] = test system: PC-3 prostate
[34] = test system: HOP-62 NSCLC
[35] = test system: ACHN renal
[36] = test system: NCI-H23 lung
[37] = test system: NCI-H226 lung
[38] = test system: SNB-75 CNS
[39] = test system: NCI/ADR-RES ovarian
[40] = test system: OVCAR-4 ovarian
[41] = test system: UACC-257 melanoma
[42] = test system: RPMI-8226 leukemia
[43] = test system: NCI-H522 lung
[44] = test system: HCT-116 colon
[45] = test system: RXF 393 renal
[46] = test system: UO-31 renal
[47] = test system: MDA-MB-435
[48] = test system: 786-0 renal
[49] = test system: OVCAR-5 ovarian
[50] = test system: A549 NSCLC
[51] = test system: BT-549 breast
[52] = test system: SF-295 CNS
[53] = test system: SR leukemia
[54] = test system: OVCAR-8 ovarian
[55] = test system: DU-145 prostate
[56] = test system: HCT-15 colon
[57] = test system: LOX IMVI melanoma

In the case of `CC(=O)OC1Oc2ccccc2-c2oc(=O)c(-c3cc4ccc(N(C)C)cc4oc3=O)cc21` (centres undefined), the GI50 [1] was 2.89 µM, the TGI [1] was 24.2 µM and the GI50 [2] was 4.34 µM. The TGI [2] was 30.1 µM, the GI50 [3] was 14.9 µM and the TGI [3] was greater than 100 µM. It also gave a GI50 [4] of 2.53 µM, a TGI [4] of 18.1 µM and a GI50 [5] of 13.1 µM. It also gave a TGI [5] of 36 µM, a GI50 [6] of 4.56 µM and a TGI [6] of 26.1 µM. For the same compound, the GI50 [7] was 10.2 µM, the TGI [7] was 29.8 µM and the GI50 [8] was 10.5 µM. The TGI [8] was 23.7 µM, the GI50 [9] was 4.8 µM and the TGI [9] was 23.3 µM. The GI50 [10] was 10.6 µM, the TGI [10] was 32.2 µM and the GI50 [11] was 11.8 µM. For the same compound, the TGI [11] was 33.1 µM, the GI50 [12] was 12.4 µM and the TGI [12] was 27.3 µM. It also gave a GI50 [13] of 1.78 µM, a TGI [13] of 22.2 µM and a GI50 [14] of 19.9 µM. It also gave a TGI [14] of 56.4 µM, a GI50 [15] of 14.3 µM and a TGI [15] of 29.5 µM. The GI50 [16] was 8.16 µM, the TGI [16] was greater than 100 µM and the GI50 [17] was 16.4 µM. It also gave a TGI [17] of 41.5 µM, a GI50 [18] of 3.46 µM and a TGI [18] of 15.4 µM. It also gave a GI50 [19] of 10.1 µM, a TGI [19] of 23.2 µM and a GI50 [20] of 17.9 µM. For the same compound, the TGI [20] was 66.1 µM, the GI50 [21] was 5.4 µM and the TGI [21] was 19.5 µM. For the same compound, the GI50 [22] was 6.91 µM, the TGI [22] was 26.5 µM and the GI50 [23] was 19.9 µM. It also gave a TGI [23] of 69.6 µM, a GI50 [24] of 20.6 µM and a TGI [24] greater than 100 µM. For the same compound, the GI50 [25] was 14.6 µM, the TGI [25] was 36.9 µM and the GI50 [26] was 2.98 µM. It also gave a TGI [26] greater than 100 µM, a GI50 [27] of 22 µM and a TGI [27] greater than 100 µM. It also gave a GI50 [28] of 13 µM, a TGI [28] of 45.5 µM and a GI50 [29] of 13.7 µM. The TGI [29] was 30.6 µM, the GI50 [30] was 13 µM and the TGI [30] was 32.1 µM. For the same compound, the GI50 [31] was 3.7 µM, the TGI [31] was 11.1 µM and the GI50 [32] was 8.61 µM. It also gave a TGI [32] of 29.9 µM, a GI50 [33] of 10.5 µM and a TGI [33] of 32.6 µM. It also gave a GI50 [34] of 4.63 µM, a TGI [34] of 25.4 µM and a GI50 [35] of 10.4 µM. It also gave a TGI [35] of 23.2 µM, a GI50 [36] of 10.6 µM and a TGI [36] of 23.7 µM. It also gave a GI50 [37] of 11.2 µM, a TGI [37] of 28.3 µM and a GI50 [38] of 9.9 µM. The TGI [38] was 25.4 µM, the GI50 [39] was 6.11 µM and the TGI [39] was 34.7 µM. It also gave a GI50 [40] of 1.29 µM, a TGI [40] of 24 µM and a GI50 [41] of 10.2 µM. It also gave a TGI [41] of 43.3 µM, a GI50 [42] of 0.392 µM and a TGI [42] of 15 µM. For the same compound, the GI50 [43] was 11.9 µM, the TGI [43] was 30.6 µM and the GI50 [44] was 1.42 µM. It also gave a TGI [44] of 21.7 µM, a GI50 [45] of 3.54 µM and a TGI [45] of 15.2 µM. It also gave a GI50 [46] of 16.9 µM, a TGI [46] of 48.8 µM and a GI50 [47] of 13.3 µM. For the same compound, the TGI [47] was 46.8 µM, the GI50 [48] was 15.7 µM and the TGI [48] was 39.3 µM. The GI50 [49] was 13.2 µM, the TGI [49] was 30.8 µM and the GI50 [50] was 12.5 µM. For the same compound, the TGI [50] was 36.9 µM, the GI50 [51] was 3.67 µM and the TGI [51] was 20.7 µM. It also gave a GI50 [52] of 4.57 µM, a TGI [52] of 21 µM and a GI50 [53] of 1.75 µM. It also gave a TGI [53] of 14.5 µM, a GI50 [54] of 10.3 µM and a TGI [54] of 37.7 µM. The GI50 [55] was 12 µM, the TGI [55] was 27.7 µM and the GI50 [56] was 24.3 µM. It also gave a TGI [56] greater than 100 µM, a GI50 [57] of 10.4 µM and a TGI [57] of 23 µM.

From PubChem BioAssay (NCI)
